Reference: patent US6376491B1, “Bicyclic compounds” (Basilea Pharmaceutica AG, priority 1998, dated 2002)
In brackets after ≈: the same amount, converted by molar mass.

Tested on: Cryptococcus neoformans (Cr. neoformans) cells (strain MTU13001)
Experiment: In vitro antifungal activity, broth micro-dilution, turbidity at 600 nm
Assay type: cell-based
Details: Cryptococcus neoformans; YNBPB medium, 35° C., 24 hours, OD600; read-out: Inhibition against in vitro cell growth, Cr. neoformans (MTU13001) IC50
Method: In vitro antifungal activity of the bicyclic compounds was determined using the Cryptococcus neoformans (Cr. neoformans) cells (strain MTU13001) according to the broth micro-dilution procedure (National Committee for Clinical Laboratory Standard (1992). Document M27-P). 10^4 cells in […] of YNBPB medium (YNB (Difco), 1% (w/v) dextrose (Wako), 0.25% K2HPO4 (Wako)) containing various concentrations of compounds were dispensed in 96-well plates and incubated at 35° C. for 24 hours. The turbidity of the cell suspension was measured using a Microplate leader (WL320, Bio-Tek Instrument) at 600 nm. Antifungal activity of each compound was indicated as 50% inhibition concentration (IC50) values that was determined by calculation the minimum concentration of the compound required for the 50% reduction of the turbidity (OD600) of cells compared to untreated control cells.

| SMILES | IC50 [µg/mL] |
| --- | --- |
| CCOCc1oc2cccc(OCCCNCc3cccnc3)c2c1C [Example 52, [3-(2-Ethoxymethyl-3-methyl-benzofuran-4-yloxy)-propyl]-pyridin-3-ylmethyl-amine] | 2.6 (≈ 7.34 µM) |
| Cc1c(CSCCc2ccccc2)oc2cccc(OCCCNC(C)C)c12 [Example 55, Isopropyl-[3-(3-methyl-2-phenethylsulfanylmethyl-benzofuran-4-yloxy)-propyl]-amine] | 1.8 (≈ 4.53 µM) |
| CCOC(=O)c1oc2cccc(OCCCNC3CCN(Cc4ccccc4)CC3)c2c1C [Example 100, 4-(3-(1-Benzyl-piperidin-4-ylamino)-propoxy)-3-methyl-benzofuran-2-carboxylic Acid Ethyl Ester] | 2.1 (≈ 4.66 µM) |
| Cc1c(C(=O)Nc2ccc(N3CCOCC3)cc2)oc2cccc(OCCCNCc3cccnc3)c12 [Example 69, 3-Methyl-4-{3-[(pyridin-3-ylmethyl)-amino]-propoxy}-benzofuran-2-carboxylic Acid (4-morpholin-4-yl-phenyl)-amide] | 57 (≈ 114 µM) |
| CCOCc1cc2cc(OCc3oc4cccc(OCCCNCc5cccnc5)c4c3C)ccc2o1 [Example 42, [3-[2-(2-Ethoxymethyl-benzofuran-5-yloxymethyl)-3-methyl-benzofuran-4-yloxy]-propyl]-pyridin-3-ylmethyl-amine] | 2.5 (≈ 4.99 µM) |
| Cc1c(COc2ccc3oc(C(C)(C)O)cc3c2)oc2cccc(OCCCNCc3cccnc3)c12 [Example 44-2, 2-[5-(3-methyl-4-{3-[(pyridin-3-ylmethyl)-amino]-propoxy}-benzofuran-2-ylmethoxy)-benzofuran-2-yl]-propan-2-ol] | 6.1 (≈ 12.2 µM) |
| Cc1c(COc2cccnc2)oc2cccc(OCCCNCc3cccnc3)c12 [Example 31, {3-[3-Methyl-2-(pyridin-3-yloxymethyl)-benzofuran-4-yloxy]-propyl}-pyridin-3-ylmethyl-amine] | 19 (≈ 47.1 µM) |
| Cc1c(C(=O)NCCc2ccccc2)oc2cccc(OCCCNC3CCN(Cc4ccccc4)CC3)c12 [Example 112, 4-[3-(1-Benzyl-piperidin-4-ylamino)-propoxy]-3-methyl-benzofuran-2-carboxylic Acid Phenethyl-amide] | 3.1 (≈ 5.9 µM) |
| CCOC(=O)c1oc2cccc(OCCCNCc3ccc(N(C)C)cc3)c2c1C [Example 99, 4-(3-(4-Dimethylamino-benzylamino)-propoxy)-3-methyl-benzofuran-2-carboxylic Acid Ethyl Ester] | 1.9 (≈ 4.63 µM) |
| Cc1c(COc2ccc(F)cc2F)oc2cccc(OCCCNCc3cccnc3)c12 [Example 12, {3-[2-(2,4-Difluorophenoxymethyl)-3-methyl-benzofuran-4-yloxy]-propyl}-pyridin-3-ylmethyl-amine] | 4.4 (≈ 10 µM) |
| Cc1c(COc2ccc(C#N)cc2)oc2cccc(OCCCNCc3cccnc3)c12 [Example 32, 4-(3-Methyl-4-{3-[(pyridin-3-ylmethyl)-amino]-propoxy}-benzofuran-2-ylmethoxy)-benzonitrile] | 69 (≈ 161 µM) |
| Cc1c(COc2ccc(F)c(F)c2F)oc2cccc(OCCCNCc3cccnc3)c12 [Example 21, {3-[2-(2,3,4-Trifluorophenoxymethyl)-3-methyl-benzofuran-4-yloxy]-propyl}-pyridin-3-ylmethyl-amine] | 5.8 (≈ 12.7 µM) |
| CCOC(=O)c1ccc(NC(=O)c2oc3cccc(OCCCNC(C)(C)C)c3c2C)cc1 [Example 64, 4-[[4-(3-tert-Butylamino-propoxy)-3-methyl-benzofuran-2-carbonyl]-amino]-benzoic Acid Ethyl Ester] | 2.1 (≈ 4.64 µM) |

Same assay, conditions: YNBPB medium, 35° C., 24 hours, OD600

| SMILES | Inhibition against in vitro cell growth, Cr. neoformans (MTU13001) IC50 [µg/mL] |
| --- | --- |
| Cc1c(C2=NC(C(=O)N3CCN(C)CC3)C(CC3CCCCC3)O2)oc2cccc(OCCCNCc3cccnc3)c12 (racemic) [Example 88, dl-[5-Cyclohexylmethyl-2-(3-methyl-4-{3-[(pyridin-3-ylmethyl)-amino]-propoxy}-benzofuran-2-yl)-trans-4,5-dihydro-oxazol-4-yl]-(4-methyl-piperazin-1-yl)-methanone] | 5.3 |

Tested on: not listed separately
Experiment: Acute toxicity (LD50) by intravenous administration in mice
Details: mouse, in vivo
Description: The acute toxicity (LD50) of the representative bicycle compound (Example 42) of the present invention was examined by intravenous administration in mice.

| SMILES | LD50 [mg/kg] |
| --- | --- |
| CCOCc1cc2cc(OCc3oc4cccc(OCCCNCc5cccnc5)c4c3C)ccc2o1 [Example 42, [3-[2-(2-Ethoxymethyl-benzofuran-5-yloxymethyl)-3-methyl-benzofuran-4-yloxy]-propyl]-pyridin-3-ylmethyl-amine] | > 50 |
